Assay results published in ChEMBL document CHEMBL5154726, “Identification of triazolopyridine derivatives as a new class of AhR agonists and evaluation of anti-psoriasis effect in a mouse model” (Eur J Med Chem, 2022).
Activity calls are given as the source filed them. The calls are words filed in the database; no cut-off is given here.

Tests used:
Mus musculus [1] = experiment: Anti-psoriatic activity in IMQ-induced BALB/c psoriasis mouse model assessed as reduction in skin thickening at 5 to 20 mg/kg, po by H and E staining based analysis; assay type: functional, organism-based; settings: dose 5-20 mg/kg
[2] = target: T1, Aryl hydrocarbon receptor (Homo sapiens, UniProt P35869); experiment: Agonist activity at AhR in human recombinant HepG2-Lucia AhR cell incubated for 24 hrs by luciferase reporter gene assay; assay type: cell-based
T1 sequence (P35869 whole entry): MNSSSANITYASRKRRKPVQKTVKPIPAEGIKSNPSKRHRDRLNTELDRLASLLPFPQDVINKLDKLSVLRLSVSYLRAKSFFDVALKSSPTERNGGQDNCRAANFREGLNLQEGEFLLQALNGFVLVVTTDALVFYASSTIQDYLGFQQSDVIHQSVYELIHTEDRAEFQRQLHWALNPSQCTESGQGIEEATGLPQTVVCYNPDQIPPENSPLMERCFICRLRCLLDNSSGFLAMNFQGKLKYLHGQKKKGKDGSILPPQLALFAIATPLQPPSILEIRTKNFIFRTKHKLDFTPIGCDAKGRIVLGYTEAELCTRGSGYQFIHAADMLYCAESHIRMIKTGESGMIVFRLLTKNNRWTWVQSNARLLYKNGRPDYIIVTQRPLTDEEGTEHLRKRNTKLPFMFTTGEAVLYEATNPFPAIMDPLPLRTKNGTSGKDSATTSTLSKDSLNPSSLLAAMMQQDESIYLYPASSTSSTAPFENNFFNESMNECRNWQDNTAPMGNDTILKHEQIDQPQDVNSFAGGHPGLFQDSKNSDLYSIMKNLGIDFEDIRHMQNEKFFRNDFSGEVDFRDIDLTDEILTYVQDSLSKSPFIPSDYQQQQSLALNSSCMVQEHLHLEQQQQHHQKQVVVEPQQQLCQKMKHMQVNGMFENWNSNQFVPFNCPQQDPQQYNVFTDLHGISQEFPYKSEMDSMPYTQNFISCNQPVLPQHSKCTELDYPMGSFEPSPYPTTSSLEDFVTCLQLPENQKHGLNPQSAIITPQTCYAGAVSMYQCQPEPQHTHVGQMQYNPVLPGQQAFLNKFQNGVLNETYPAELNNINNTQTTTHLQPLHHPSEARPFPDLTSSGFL

[3] = Efflux ratio of apparent permeability in MDCK cells; assay type: ADME, cell-based, Canis lupus familiaris; settings: dog
Mus musculus [4] = experiment: Anti-psoriatic activity in IMQ-induced BALB/c psoriasis mouse model assessed as reduction in IL-17f expression at 0.1 to 1 % treated topically by qRT-PCR analysis; assay type: functional, organism-based; settings: dose 0.1-1 %
Mus musculus [5] = experiment: Anti-psoriatic activity in IMQ-induced BALB/c psoriasis mouse model assessed as reduction in scaling at 0.1 to 1 % treated topically by H and E staining based analysis; assay type: functional, organism-based; settings: dose 0.1-1 %
Mus musculus [6] = experiment: Anti-psoriatic activity in IMQ-induced BALB/c psoriasis mouse model assessed as reduction in erythema at 0.1 to 1 % treated topically by H and E staining based analysis; assay type: functional, organism-based; settings: dose 0.1-1 %
[7] = target: T1, Aryl hydrocarbon receptor; experiment: Induction of Ahr nuclear translocation from cytoplasm to nucleus in human HaCaT cells at 0.01 uM incubated for 1 hr by Western blot analysis; assay type: cell-based
[8] = MRT in Sprague-Dawley rat at 5 mg/kg, iv measured up to 24 hrs by LC-MS/MS analysis; assay type: ADME, organism-based; settings: in vivo
HaCaT = experiment: Downregulation of CYP1A1 gene expression in AhR knockdown human HaCaT cells incubated for 48 hrs by qRT-PCR analysis; assay type: functional, cell-based
Mus musculus [9] = experiment: Anti-psoriatic activity in IMQ-induced BALB/c psoriasis mouse model assessed as reduction in IL-17a expression at 0.1 to 1 % treated topically by qRT-PCR analysis; assay type: functional, organism-based; settings: dose 0.1-1 %
Mus musculus [10] = experiment: Anti-psoriatic activity in IMQ-induced BALB/c psoriasis mouse model assessed as reduction in scaling at 5 to 20 mg/kg, po by H and E staining based analysis; assay type: functional, organism-based; settings: dose 5-20 mg/kg
[11] = Cytotoxicity against human BEAS-2B cells assessed as reduction in cell viability measured after 72 hrs by MTT assay; assay type: toxicity, cell-based
Mus musculus [12] = experiment: Anti-psoriatic activity in IMQ-induced BALB/c psoriasis mouse model assessed as reduction in IL-17a expression at 5 to 20 mg/kg, po by qRT-PCR analysis; assay type: functional, organism-based; settings: dose 5-20 mg/kg
[13] = AUC (0 to infinity) in Sprague-Dawley rat at 5 mg/kg, iv measured up to 24 hrs by LC-MS/MS analysis; assay type: ADME, organism-based; parameters: dose 5 mg/kg, time < 24 hrs, route iv; settings: in vivo
[14] = Apparent permeability in MDCK cells at 50 uM incubated for 90 mins by LC/MS analysis; assay type: ADME, cell-based, Canis lupus familiaris; settings: dog
[15] = Volume of distribution at steady state in Sprague-Dawley rat at 5 mg/kg, iv measured up to 24 hrs by LC-MS/MS analysis; assay type: ADME, organism-based; settings: in vivo, read-out: Vdss
[16] = Cmax in Sprague-Dawley rat at 10 mg/kg, po measured up to 24 hrs by LC-MS/MS analysis; assay type: ADME, organism-based; parameters: time < 24 hrs, dose 10 mg/kg, route po; settings: in vivo
[17] = Oral bioavailability in Sprague-Dawley rat at 10 mg/kg measured up to 24 hrs by LC-MS/MS analysis; assay type: ADME, organism-based; settings: in vivo
[18] = Clearance in Sprague-Dawley rat at 5 mg/kg, iv measured up to 24 hrs by LC-MS/MS analysis; assay type: ADME, organism-based; settings: in vivo
[19] = target: T2, Nuclear factor erythroid 2-related factor 2 (Homo sapiens) (UniProt Q16236); experiment: Activation of Nrf2 expression in human HaCaT cells up to 10 uM by qRT-PCR analysis; assay type: cell-based; settings: filed as activator
T2 sequence (whole entry): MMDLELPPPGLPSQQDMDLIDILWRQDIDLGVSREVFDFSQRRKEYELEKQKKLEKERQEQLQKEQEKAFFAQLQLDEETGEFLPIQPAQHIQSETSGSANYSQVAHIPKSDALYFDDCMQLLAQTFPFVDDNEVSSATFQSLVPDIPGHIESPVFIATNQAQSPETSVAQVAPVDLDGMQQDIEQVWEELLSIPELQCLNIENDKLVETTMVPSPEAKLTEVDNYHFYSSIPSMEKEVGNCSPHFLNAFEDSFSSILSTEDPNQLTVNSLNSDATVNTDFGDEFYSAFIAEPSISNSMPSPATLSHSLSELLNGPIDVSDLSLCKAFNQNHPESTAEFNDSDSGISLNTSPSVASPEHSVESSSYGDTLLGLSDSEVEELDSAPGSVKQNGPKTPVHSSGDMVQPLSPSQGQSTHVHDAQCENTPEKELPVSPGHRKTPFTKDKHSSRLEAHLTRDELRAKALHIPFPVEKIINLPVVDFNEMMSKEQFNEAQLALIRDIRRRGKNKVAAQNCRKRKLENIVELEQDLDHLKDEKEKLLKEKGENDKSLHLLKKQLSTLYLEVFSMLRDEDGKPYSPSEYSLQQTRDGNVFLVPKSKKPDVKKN

[20] = Half life in Sprague-Dawley rat at 10 mg/kg, po measured up to 24 hrs by LC-MS/MS analysis; assay type: ADME, organism-based; settings: in vivo
Mus musculus [21] = experiment: Anti-psoriatic activity in IMQ-induced BALB/c psoriasis mouse model assessed as reduction in erythema at 5 to 20 mg/kg, po by H and E staining based analysis; assay type: functional, organism-based; settings: dose 5-20 mg/kg

EC50 [2]: 0.03 nM
efflux ratio [3]: 2.34
Activity [7]: Active
MRT [8]: 0.89 h
AUC(0-inf) [13]: 4640 ng·h/mL
Papp at 1.5 h, 50 µM [14]: 3.49 ×10⁻⁶ cm/s
Vd [15]: 1.02 L/kg
Cmax [16]: 685 ng/mL
bioavailability [17]: 15.1%
clearance [18]: 19 mL/min/kg
Activity [19]: Active
half-life [20]: 6.97 h
SMILES: Brc1ccc(-c2nc3ccc(Br)cn3n2)cc1
Activity (Mus musculus [1]): Active
Activity (Mus musculus [4]): Active
Activity (Mus musculus [5]): Active
Activity (Mus musculus [6]): Active
Activity (HaCaT): Active
Activity (Mus musculus [9]): Active
Activity (Mus musculus [10]): Active
IC50 at 72 h [11]: > 300000 nM
Activity (Mus musculus [12]): Active
Activity (Mus musculus [21]): Active
